Source: publication PMC6179086 (Journal of Enzyme Inhibition and Medicinal Chemistry, 2018)

Key:
Assay in all cases: stopped-flow CO2 hydration assay
Assay type in all cases: biochemical
[1] = target: T1, Can2-CA (Cryptococcus neoformans, UniProt Q3I4V7); details: read-out: Inhibition constant, Ki (μM) / β-family / Can2
T1 construct: recombinant beta-CA, produced as reported earlier; dimer in the docking model
T1 sequence (Q3I4V7 1-239): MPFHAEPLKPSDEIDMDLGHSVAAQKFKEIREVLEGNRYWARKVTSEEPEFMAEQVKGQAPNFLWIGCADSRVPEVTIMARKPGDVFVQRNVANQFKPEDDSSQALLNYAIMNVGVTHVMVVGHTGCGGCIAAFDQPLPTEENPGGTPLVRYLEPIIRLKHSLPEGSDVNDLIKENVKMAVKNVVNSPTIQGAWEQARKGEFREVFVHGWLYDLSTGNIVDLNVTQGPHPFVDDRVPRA

[2] = target: T2, VchCA (Vibrio cholerae, UniProt A0A086SLX8)
T2 construct: gene can
T2 sequence (A0A086SLX8 1-222): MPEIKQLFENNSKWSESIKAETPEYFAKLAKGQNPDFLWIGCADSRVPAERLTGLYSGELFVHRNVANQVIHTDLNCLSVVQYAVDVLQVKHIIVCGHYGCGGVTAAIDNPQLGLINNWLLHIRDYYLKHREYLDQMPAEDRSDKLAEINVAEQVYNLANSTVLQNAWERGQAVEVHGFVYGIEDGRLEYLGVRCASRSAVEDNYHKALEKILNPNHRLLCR

[3] = target: T3, SspCA (Sulfurihydrogenibium sp. YO3AOP1, UniProt B2V8E3); details: read-out: Inhibition constant, Ki (μM) / α-family / Ssp
T3 construct: recombinant bacterial alpha-CA, produced as reported earlier
T3 sequence (B2V8E3 21-246): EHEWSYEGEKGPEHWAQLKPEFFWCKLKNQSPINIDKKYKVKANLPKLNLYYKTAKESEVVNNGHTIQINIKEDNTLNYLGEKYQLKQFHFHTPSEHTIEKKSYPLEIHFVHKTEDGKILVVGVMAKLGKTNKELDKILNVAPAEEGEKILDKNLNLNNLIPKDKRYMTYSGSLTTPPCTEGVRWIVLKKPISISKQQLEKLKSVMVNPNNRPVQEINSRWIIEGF

[4] = target: T4, MgCA (Malassezia globosa, UniProt A8Q1N3); details: read-out: Inhibition constant, Ki (μM) / β-family / Mg
T4 construct: gene MGL_1814
T4 sequence (A8Q1N3 1-241): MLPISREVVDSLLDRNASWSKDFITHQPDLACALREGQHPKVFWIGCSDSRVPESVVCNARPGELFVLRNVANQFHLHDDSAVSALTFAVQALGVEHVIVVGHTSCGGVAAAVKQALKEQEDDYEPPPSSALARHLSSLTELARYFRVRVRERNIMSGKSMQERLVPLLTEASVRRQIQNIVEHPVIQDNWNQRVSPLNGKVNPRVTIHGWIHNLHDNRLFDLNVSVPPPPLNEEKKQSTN

[5] = target: T5, hCA IX (Homo sapiens, UniProt Q16790); details: read-out: Inhibition constant, Ki (μM) / α-family / CAI
T5 construct: gene CA9

Row | SMILES | Ki [1] | Ki [2] | other results
1 | NC(=O)c1ccc[n+]([O-])c1N [compound 5, 5] | 1.7 µM | 2.1 µM | –
2 | CCc1cc(C(C)C)c(C(N)=O)c(N)[n+]1[O-] [compound 13, 13] | – | 2.8 µM | –
3 | CCc1cc(C(C)C)[n+]([O-])c(N)c1C(N)=O [compound 16, 16] | – | – | Ki [3]: 58.5 µM
4 | CCc1cc(C)[n+]([O-])c(N)c1C(N)=O [compound 19, 19] | – | – | Ki [3]: 42.2 µM
5 | CC(C)c1cc(-c2ccccc2)c(C(N)=O)c(N)[n+]1[O-] [compound 20, 20] | – | – | Ki [4]: 46.2 µM
6 | CCc1cc(-c2ccccc2)c(C(N)=O)c(N)[n+]1[O-] [compound 21, 21] | – | 2.2 µM | –
7 | NC(=O)c1ncc[n+]([O-])c1N [compound 30, 30] | 1.1 µM | – | Ki [5]: > 100 µM; Ki [4]: 6.7 µM
8 | Cc1cnc(C(N)=O)c[n+]1[O-] [compound 31, 31] | 1.3 µM | – | –
